Assay [1] has as its target HLA-B*35:01 (Homo sapiens, UniProt P01889, A329T/A93T/A95T/C349S/D201E/D98Y/E176V/E187L/E204Q/E69T/I218V/K202T/L119I/Q94N/R155S/R180L/S121R/S35A/S48A/T118I/V127L/V306I/V36M/Y140S/Y91F). Nature of the assay: biochemical. The method, then:
(§1) The affinity of peptide/HLA binding was determined as described before ([21], [22]). Briefly, biotinylated HLA Class I heavy chains were denatured and diluted into refolding buffer containing β-mercaptoethanol and varying concentrations of the test/control peptides. The mixtures were incubated with agitation at room temperature for 20–24 hours to enable peptide/HLA complex formation. The solutions containing the complexes were transferred to streptavidin plates and incubated for 30 minutes. Plates were then developed using ELISA. Absorbance measured at 450 nm was graphed against the varying concentrations of the test peptide used. The affinity of peptide/HLA binding was determined by calculating the EC50, defined as the peptide concentration resulting in half saturation. Peptides with an EC50 under 100 nM were classified as high affinity binders.

For assay [2], the target named is HLA-A*01:01 (Homo sapiens, UniProt P04439, A114D/A174V/A182V/D101N/D185E/E176A/E190D/L180R/Q94H/R68K/S129P/T187R/V100A/V91M/W191G). The experiment in a line: biochemical. The method, then: as §1
The target of assay [3] is HLA-B*40:01 (Homo sapiens, UniProt P01889, A65T/A93T/A95T/D138N/D98Y/E176V/E69K/N87E/Q56L/Q94N/R180L/S121R/S35A/S48T/T167S/V36M/W171L/Y33H/Y91S). The experiment in a line: biochemical. The method, then:
as §1

For assay [4], the system named is AAV9 capsid-specific CD8 T cells in healthy donor PBMCs. Nature of the assay: Peptide deconvolution FluoroSpot, CD4-depleted PBMCs expanded with Class I MAPPs pool (IFN-γ). It is filed as cell-based, human. Conditions: for T cell response in tested donors / donors with the predicted binding allele (in words) / % response in donors with allele(s): CD4-depleted PBMCs expanded with Class I MAPPs pool; for T cell response in tested donors / donors with the predicted binding allele (in words): IFN-γ FluoroSpot; for Total no. of responders: 24 healthy donors, CD4-depleted PBMCs expanded 10 days with Class I MAPPs pool, matrix pools 1 µg per peptide/mL, then individual peptide 2 µg/mL, ~24 h, positive = SI ≥1.4; for % response in donors with allele(s): responders among cohort donors expressing the peptide's predicted HLA binding allele(s). The method, then:
For the identification of immunodominant CD8 T cell epitopes, the 41 HLA Class I MAPPs peptides were arranged in a matrix of 13 pools, each containing 6–7 peptides ( Supplementary Table 4 ). Per the matrix, each matrix pool was constructed by combining the peptides listed in each column or each row ([16]). Peptides present at the intersection of responding matrix pools were shortlisted and tested individually. All matrix pools were dissolved in 100% DMSO and tested at 1 µg per peptide/mL. For individual testing, peptides were dissolved in 100% DMSO and tested at 2 µg/mL. Matrix pools and individual peptides were synthesized by GenScript.
Frozen PBMCs were thawed and resuspended in AIM V+ 5% SR at 1X10^6 cells/mL. Cells were stimulated with test peptide pools (1 µg per peptide/mL) and expanded in vitro for 10 days as described previously ([17]). On Days 4 and 7, cells were supplemented with a cytokine cocktail containing IL-2 (R&D Systems, 10 units/mL), IL-7 (R&D Systems, 10 ng/mL), and IL-15 (PeproTech, 10 ng/mL). On Day 10, cells were harvested, washed, and restimulated on precoated IFN-γ FluoroSpot plates (MabTech) in triplicates (125,000 cells/well). Peptide pools (1 µg per peptide/mL) or individual peptides (2 µg/mL, for deconvolution studies) were used for restimulation. Anti-CD3 antibody (MabTech, 100 ng/mL) and DMSO were used as positive and negative controls respectively. Plates were incubated at 37 degrees Celsius for ~ 24 hours and processed as described in the previous section.
For experiments involving T cell depletion, CD4 T cells were depleted via magnetic separation using human CD4 Microbeads (Miltenyi Biotec) and an AutoMACS separator (Miltenyi Biotec) according to manufacturer’s instructions. Depleted cells were washed with MACS buffer prior to seeding on culture plates.
For FluoroSpot assays, results were expressed as Spot Forming Units (SFU), calculated as the spot count per million PBMCs. The Stimulation Index (SI) was calculated as the average SFU in test wells/average SFU in DMSO control wells. For assays with fresh PBMCs, an SI of 2 or higher with a minimum of 50 SFU was counted as a positive IFN-γ/TNF-α response. For assays with expanded PBMCs, an SI of 1.4 or higher was set as the cutoff for a positive IFN-γ response. Predicted HLA binding alleles for each peptide were determined using MHCMotifDecon 1.0 as previously described ([13], [14], [23]). Predicted binding affinities for identified epitopes were determined using NetMHC 4.0 ([24]). Data tables and heatmaps were created using Excel. Data analysis and graphical representations were performed on Graph Pad Prism 10.
To identify the immunodominant CD8 T cell epitopes within the HLA Class I MAPPs peptides, we utilized a system of matrix pools which facilitates rapid mapping of immunodominant epitopes when investigating a large number of peptides. The 41 HLA Class I MAPPs peptides were arranged into 13 matrix pools (MPs), each containing 6–7 peptides ( Supplementary Table 4 ). The matrix arrangement allows each Class I peptide to feature in two MPs, and a restimulation response to both MPs containing a specific peptide identifies putative immunodominant peptides that can be verified on an individual basis. Peptide deconvolution was performed on a cohort of 24 healthy donors. PBMCs were depleted of CD4 T cells and expanded as described before with the Class I MAPPs pool (41 peptides). Expanded PBMCs were restimulated on FluoroSpot assays with the 13 MPs.

The target in assay [5] is HLA-B*27:05 (Homo sapiens, UniProt P01889, D138H/D201E/E176V/E204Q/G107R/H137Y/K202T/N104T/N87E/Q56L/Q94K/R106L/R155S/R180L/S101D/S121N/S48T/Y140D/Y33H/Y91C). Nature of the assay: Peptide/HLA binding affinity assay. Conditions: EC50 = peptide concentration at half saturation; HLA heavy chain refolded with varying peptide conc., 20–24 h, room temperature, ELISA 450 nm; <100 nM = high affinity. The source says:
Plates were then developed using ELISA.

In assay [6] the target is HLA-C*07:01 (Homo sapiens, UniProt P10321, K90N/S123Y). The experiment in a line: biochemical. The method, then:
as §1

Assay [7] addresses HLA-A*68:01 (Homo sapiens, UniProt P04439, A269V/D185E/E176V/E277Q/E87N/F33Y/G231S/I121M/I166T/I218V/L180W/L300P/L318F/N151K/P208A/P217A/Q86R/R169H/T345S). Nature of the assay: biochemical. The method, then:
as §1

The target in assay [8] is HLA-C*03:03 (Homo sapiens, UniProt P10321, A176E/A330V/A97T/C25G/C350S/D114A/D33Y/E197K/G115R/L119I/L127V/L171W/L218V/M285V/M309V/M331V/P208H/Q277E/Q291P/R243W/R45H/S123Y/S140Y/S297R/S48A/T118I/T187L/T329A/T363A/V319A). Conditions: C*03:03 measured as substitute for C*03:04; EC50 = peptide concentration at half saturation; refolding 20–24 h, room temperature, ELISA 450 nm; <100 nM = high affinity. The method, then:
as §1

The target of assay [9] is HLA-A*02:01 (Homo sapiens, UniProt P04439, D140Y/D185E/D98H/E176V/E277Q/G131W/G231S/I119V/I121R/I166T/I218V/L300P/L318F/N151K/N90K/P208A/P217A/Q86G/Q94H/R138H/R169H/T345S). The experiment in a line: biochemical. The method, then:
as §1

Residues, ends and D or L forms follow the SMILES beside them.

For the compound `CC(C)C[C@H](NC(=O)[C@H](Cc1c[nH]cn1)NC(=O)[C@H](CC(N)=O)NC(=O)[C@H](CC(N)=O)NC(=O)[C@H](Cc1ccc(O)cc1)NC(=O)[C@@H](NC(=O)[C@@H]1CCCN1C(=O)[C@@H](N)CC(C)C)[C@@H](C)O)C(=O)N[C@@H](Cc1ccc(O)cc1)C(=O)O` [Peptide 11] (H-LPTYNNHLY-OH), in assay [1], a half-maximal effect (EC50) was put at 96.7 nM.

In assay [2], `CC[C@H](C)[C@H](NC(=O)[C@@H]1CCCN1C(=O)[C@H](CCCNC(=N)N)NC(=O)[C@@H]1CCCN1C(=O)[C@H](CCC(=O)O)NC(=O)[C@H](CO)NC(=O)[C@@H](N)Cc1ccc(O)cc1)C(=O)NCC(=O)N[C@H](C(=O)N[C@@H](CCCNC(=N)N)C(=O)N[C@@H](Cc1ccc(O)cc1)C(=O)O)[C@@H](C)O` [Peptide 41] (H-YSEPRPIGTRY-OH) returned an EC50 of 16.3 nM.

`CSCC[C@H](NC(=O)[C@H](CCC(N)=O)NC(=O)[C@H](CO)NC(=O)[C@@H]1CCCN1C(=O)[C@H](Cc1ccccc1)NC(=O)[C@H](Cc1ccc(O)cc1)NC(=O)[C@H](CCC(=O)O)NC(=O)[C@@H](N)CC(C)C)C(=O)N[C@@H](CC(C)C)C(=O)O` [Peptide 19] (H-LEYFPSQML-OH): the half-maximal effective concentration (EC50) in assay [3] stood at 0.1 nM.

Take TDSDYQLPYVL [Peptide 13]: in assay [4], the “T cell response in tested donors / donors with the predicted binding allele (in words)” value was “elicited a T cell response”. Also, in assay [4] (peptide deconvolution in 24 healthy donors, '-' = no responding donor, IFN-γ, SI ≥1.4), the Responding donors result is given as “Donor # 442”.

As for `CC(C)C[C@H](NC(=O)[C@H](C)NC(=O)[C@H](Cc1c[nH]c2ccccc12)NC(=O)[C@@H](NC(=O)[C@H](CCCNC(=N)N)NC(=O)[C@@H](N)[C@@H](C)O)[C@@H](C)O)C(=O)N1CCC[C@H]1C(=O)N[C@H](C(=O)N[C@@H](Cc1ccc(O)cc1)C(=O)O)[C@@H](C)O` [Peptide 10] (H-TRTWALPTY-OH), the results for the EC50 in [5] and in assay [6] were 120 nM and more than 10000 nM, respectively.

In assay [7], `CSCC[C@H](NC(=O)[C@H](CC(N)=O)NC(=O)[C@H](CO)NC(=O)[C@@H]1CCCN1C(=O)CNC(=O)[C@H](C)NC(=O)[C@@H](NC(=O)[C@@H](N)CO)C(C)C)C(=O)N[C@@H](C)C(=O)N[C@H](C(=O)N[C@@H](CCC(N)=O)C(=O)NCC(=O)N[C@@H](CCCNC(=N)N)C(=O)O)C(C)C` [Peptide 26] (H-SVAGPSNMAVQGR-OH) showed an EC50 of 1.9 nM. The “Binding affinity (nM), C*03:03” value in [8] is on record as “Non-binder”.

As to `CC(C)[C@H](NC(=O)[C@H](CC(N)=O)NC(=O)[C@H](CCC(=O)O)NC(=O)[C@H](Cc1ccccc1)NC(=O)[C@H](CCC(=O)O)NC(=O)[C@H](Cc1ccc(O)cc1)NC(=O)[C@H](CO)NC(=O)[C@H](Cc1ccccc1)NC(=O)[C@H](CCC(N)=O)NC(=O)[C@@H](N)Cc1ccccc1)C(=O)O` [Peptide 21] (H-FQFSYEFENV-OH), the EC50 in [9] worked out at 0.6 nM.

As to “QPAKKRLNF [Peptide 7, predicted allele B*07:02]”, in assay [4] (IFN-γ), the “Total no. of responders” value is 0. Further, in [4], the “T cell response in tested donors / donors with the predicted binding allele (in words)” value is “did not elicit a response”. Besides, the “% response in donors with allele(s)” value in [4] (IFN-γ, SI ≥1.4) is listed as 0/6 (0%).

As to “SQAVGRSSF [Peptide 17, predicted allele B*15:01]”, in [4] (IFN-γ), the “Total no. of responders” value came to 0. Besides, in assay [4], the “T cell response in tested donors / donors with the predicted binding allele (in words)” value was “did not elicit a response”. For the same compound, the “% response in donors with allele(s)” value in assay [4] (IFN-γ, SI ≥1.4) is given as 0/2 (0%).

Consider `CSCC[C@H](NC(=O)[C@H](CC(N)=O)NC(=O)[C@H](CO)NC(=O)[C@@H]1CCCN1C(=O)CNC(=O)[C@H](C)NC(=O)[C@@H](N)C(C)C)C(=O)N[C@@H](C)C(=O)N[C@H](C(=O)O)C(C)C` [Peptide 27] (H-VAGPSNMAV-OH), for which the “Binding affinity (nM), A*68:01” value in assay [7] (EC50 = peptide concentration at half saturation, HLA heavy chain refolded with varying peptide conc., 20–24 h, room temperature, ELISA 450 nm, <100 nM = high affinity) is “Non-binder”.

Turning to `CC[C@H](C)[C@H](NC(=O)[C@@H](N)CC(C)C)C(=O)N[C@@H](CC(=O)O)C(=O)N[C@@H](CCC(N)=O)C(=O)N[C@@H](Cc1ccc(O)cc1)C(=O)N[C@@H](CC(C)C)C(=O)N[C@@H](Cc1ccc(O)cc1)C(=O)N[C@@H](Cc1ccc(O)cc1)C(=O)N[C@@H](CC(C)C)C(=O)O` [Peptide 24] (H-LIDQYLYYL-OH), the EC50 in [9] was 0.6 nM.

In turn, `CC(C)[C@H](NC(=O)[C@H](C)NC(=O)[C@H](CCCNC(=N)N)NC(=O)CN)C(=O)N[C@@H](Cc1ccccc1)C(=O)N[C@@H](CCC(N)=O)C(=O)N[C@@H](C)C(=O)N[C@@H](CCCCN)C(=O)N[C@@H](CCCCN)C(=O)O` [Peptide 5] (H-GRAVFQAKK-OH) came in with an EC50 in assay [5] of 83.9 nM.

In assay [5], `CC(C)C[C@H](N)C(=O)N[C@@H](CCCNC(=N)N)C(=O)N[C@H](C(=O)NCC(=O)N[C@@H](CC(N)=O)C(=O)N[C@@H](CC(N)=O)C(=O)N[C@@H](Cc1ccccc1)C(=O)N[C@@H](CCC(N)=O)C(=O)N[C@@H](Cc1ccccc1)C(=O)O)[C@@H](C)O` [Peptide 20] (H-LRTGNNFQF-OH) registered a concentration giving a half-maximal response (EC50) of 122 nM.

For orientation: EC50 means the concentration at which the effect is half-maximal.

Source of the values: PMC12371361 (Frontiers in Immunology, 2025).
